Data from ChEMBL document CHEMBL1949576, “Praziquantel derivatives exhibit activity against both juvenile and adult Schistosoma japonicum” (2012).

Tests used:
Type in all cases: functional
Schistosoma japonicum [1] = assay: Antischistosomal activity against adult Schistosoma japonicum assessed as worm survival at 50 uM after 48 hrs relative to control
Schistosoma japonicum [2] = assay: Antischistosomal activity against adult Schistosoma japonicum assessed as worm survival at 25 uM after 48 hrs relative to control
Schistosoma japonicum [3] = assay: Antischistosomal activity against adult Schistosoma japonicum assessed as worm survival at 10 uM after 48 hrs relative to control
Schistosoma japonicum [4] = assay: Antischistosomal activity against adult Schistosoma japonicum assessed as worm survival at 5 uM after 48 hrs relative to control
Schistosoma japonicum [5] = assay: Antischistosomal activity against adult Schistosoma japonicum assessed as worm survival at 50 uM after 72 hrs relative to control
Schistosoma japonicum [6] = assay: Antischistosomal activity against adult Schistosoma japonicum assessed as worm survival at 25 uM after 72 hrs relative to control
Schistosoma japonicum [7] = assay: Antischistosomal activity against adult Schistosoma japonicum assessed as worm survival at 10 uM after 72 hrs relative to control
Schistosoma japonicum [8] = assay: Antischistosomal activity against adult Schistosoma japonicum assessed as worm survival at 5 uM after 72 hrs relative to control
Schistosoma japonicum [9] = assay: Antischistosomal activity against juvenile Schistosoma japonicum assessed as worm survival at 50 uM after 24 hrs relative to control
Schistosoma japonicum [10] = assay: Antischistosomal activity against juvenile Schistosoma japonicum assessed as worm survival at 15 uM after 24 hrs relative to control
Schistosoma japonicum [11] = assay: Antischistosomal activity against juvenile Schistosoma japonicum assessed as worm survival at 10 uM after 24 hrs relative to control
Schistosoma japonicum [12] = assay: Antischistosomal activity against juvenile Schistosoma japonicum assessed as worm survival at 5 uM after 24 hrs relative to control
Schistosoma japonicum [13] = assay: Antischistosomal activity against juvenile Schistosoma japonicum assessed as worm survival at 50 uM after 48 hrs relative to control
Schistosoma japonicum [14] = assay: Antischistosomal activity against juvenile Schistosoma japonicum assessed as worm survival at 15 uM after 48 hrs relative to control
Schistosoma japonicum [15] = assay: Antischistosomal activity against juvenile Schistosoma japonicum assessed as worm survival at 10 uM after 48 hrs relative to control
Schistosoma japonicum [16] = assay: Antischistosomal activity against juvenile Schistosoma japonicum assessed as worm survival at 5 uM after 48 hrs relative to control
Schistosoma japonicum [17] = assay: Antischistosomal activity against juvenile Schistosoma japonicum assessed as worm survival at 50 uM after 72 hrs relative to control
Schistosoma japonicum [18] = assay: Antischistosomal activity against juvenile Schistosoma japonicum assessed as worm survival at 15 uM after 72 hrs relative to control
Schistosoma japonicum [19] = assay: Antischistosomal activity against juvenile Schistosoma japonicum assessed as worm survival at 10 uM after 72 hrs relative to control
Schistosoma japonicum [20] = assay: Antischistosomal activity against juvenile Schistosoma japonicum assessed as worm survival at 5 uM after 72 hrs relative to control
Schistosoma japonicum [21] = assay: Antischistosomal activity against adult Schistosoma japonicum infected in mouse assessed as total worm reduction at 200 mg/kg, po administered 21 days after infection relative to control; set-up: scale not given: the % may be the effect or the level left
Schistosoma japonicum [22] = assay: Antischistosomal activity against juvenile Schistosoma japonicum infected in mouse assessed as total worm reduction at 200 mg/kg, po administered 14 days after infection relative to control; set-up: scale not given: the % may be the effect or the level left
Schistosoma japonicum [23] = assay: Antischistosomal activity against adult Schistosoma japonicum assessed as worm survival at 50 uM after 24 hrs relative to control
Schistosoma japonicum [24] = assay: Antischistosomal activity against adult Schistosoma japonicum assessed as worm survival at 25 uM after 24 hrs relative to control
Schistosoma japonicum [25] = assay: Antischistosomal activity against adult Schistosoma japonicum assessed as worm survival at 10 uM after 24 hrs relative to control
Schistosoma japonicum [26] = assay: Antischistosomal activity against adult Schistosoma japonicum assessed as worm survival at 5 uM after 24 hrs relative to control
Schistosoma japonicum [27] = assay: Antischistosomal activity against adult Schistosoma japonicum assessed as worm survival at 20 uM after 48 hrs relative to control
Schistosoma japonicum [28] = assay: Antischistosomal activity against adult Schistosoma japonicum assessed as worm survival at 15 uM after 48 hrs relative to control
Schistosoma japonicum [29] = assay: Antischistosomal activity against adult Schistosoma japonicum assessed as worm survival at 20 uM after 72 hrs relative to control
Schistosoma japonicum [30] = assay: Antischistosomal activity against adult Schistosoma japonicum assessed as worm survival at 15 uM after 72 hrs relative to control
Schistosoma japonicum [31] = assay: Antischistosomal activity against juvenile Schistosoma japonicum assessed as worm survival at 25 uM after 24 hrs relative to control
Schistosoma japonicum [32] = assay: Antischistosomal activity against juvenile Schistosoma japonicum assessed as worm survival at 20 uM after 24 hrs relative to control
Schistosoma japonicum [33] = assay: Antischistosomal activity against juvenile Schistosoma japonicum assessed as worm survival at 25 uM after 48 hrs relative to control
Schistosoma japonicum [34] = assay: Antischistosomal activity against juvenile Schistosoma japonicum assessed as worm survival at 20 uM after 48 hrs relative to control
Schistosoma japonicum [35] = assay: Antischistosomal activity against juvenile Schistosoma japonicum assessed as worm survival at 25 uM after 72 hrs relative to control
Schistosoma japonicum [36] = assay: Antischistosomal activity against juvenile Schistosoma japonicum assessed as worm survival at 20 uM after 72 hrs relative to control
Schistosoma japonicum [37] = assay: Antischistosomal activity against adult Schistosoma japonicum assessed as worm survival at 20 uM after 24 hrs relative to control
Schistosoma japonicum [38] = assay: Antischistosomal activity against adult Schistosoma japonicum assessed as worm survival at 15 uM after 24 hrs relative to control

Row | SMILES | survival at 50 µM (Schistosoma japonicum [1]) [%] | survival at 25 µM (Schistosoma japonicum [2]) [%] | survival at 10 µM (Schistosoma japonicum [3]) [%] | survival at 50 µM (Schistosoma japonicum [5]) [%] | survival at 25 µM (Schistosoma japonicum [6]) [%] | survival at 10 µM (Schistosoma japonicum [7]) [%] | survival at 50 µM (Schistosoma japonicum [9]) [%] | survival at 15 µM (Schistosoma japonicum [10]) [%] | survival at 10 µM (Schistosoma japonicum [11]) [%] | survival at 50 µM (Schistosoma japonicum [13]) [%] | survival at 15 µM (Schistosoma japonicum [14]) [%] | survival at 10 µM (Schistosoma japonicum [15]) [%] | survival at 50 µM (Schistosoma japonicum [17]) [%] | survival at 15 µM (Schistosoma japonicum [18]) [%] | survival at 10 µM (Schistosoma japonicum [19]) [%] | Activity (Schistosoma japonicum [21]) [%] | Activity (Schistosoma japonicum [22]) [%] | survival at 50 µM (Schistosoma japonicum [23]) [%] | survival at 25 µM (Schistosoma japonicum [24]) [%] | survival at 10 µM (Schistosoma japonicum [25]) [%] | also measured
1 | O=C(C1CCCCC1)N1CC(=O)N2CCc3ccc(O)cc3C2C1 (configuration not stated) | 0 | 0 | 20 | 0 | 0 | 20 | 0 | 0 | 0 | 0 | 0 | 45.5 | 0 | 0 | 54.5 | 40.2 | 16.1 | 0 | 0 | 0 | survival at 5 µM (Schistosoma japonicum [4]): 80%; survival at 5 µM (Schistosoma japonicum [8]): 80%; survival at 5 µM (Schistosoma japonicum [12]): 0%; survival at 5 µM (Schistosoma japonicum [16]): 27.3%; survival at 5 µM (Schistosoma japonicum [20]): 27.3%; survival at 5 µM (Schistosoma japonicum [26]): 60%
2 | C[C@H]1[C@@H](OC(=O)CCC(=O)Nc2ccc3c(c2)C2CN(C(=O)C4CCCCC4)CC(=O)N2CC3)O[C@@H]2O[C@@]3(C)CC[C@H]4[C@H](C)CC[C@@H]1[C@@]24OO3 (some centres not stated) | 0 | 0 | 100 | 0 | 0 | 100 | 0 | – | 9.1 | 0 | – | 45.5 | 0 | – | 54.5 | 41.8 | 3.8 | 0 | 0 | 100 | survival at 20 µM (Schistosoma japonicum [27]): 0%; survival at 15 µM (Schistosoma japonicum [28]): 60%; survival at 20 µM (Schistosoma japonicum [29]): 0%; survival at 15 µM (Schistosoma japonicum [30]): 40%; survival at 5 µM (Schistosoma japonicum [12]): 9.1%; survival at 25 µM (Schistosoma japonicum [31]): 0%; survival at 20 µM (Schistosoma japonicum [32]): 11.1%; survival at 5 µM (Schistosoma japonicum [16]): 9.1%; survival at 25 µM (Schistosoma japonicum [33]): 0%; survival at 20 µM (Schistosoma japonicum [34]): 0%; survival at 5 µM (Schistosoma japonicum [20]): 9.1%; survival at 25 µM (Schistosoma japonicum [35]): 0%; survival at 20 µM (Schistosoma japonicum [36]): 0%; survival at 20 µM (Schistosoma japonicum [37]): 0%; survival at 15 µM (Schistosoma japonicum [38]): 0%
3 | C[C@H]1[C@@H](OC(=O)CCC(=O)Oc2ccc3c(c2)C2CN(C(=O)C4CCCCC4)CC(=O)N2CC3)O[C@@H]2O[C@@]3(C)CC[C@H]4[C@H](C)CC[C@@H]1[C@@]24OO3 (some centres not stated) | 0 | 0 | – | 0 | 0 | – | 0 | 0 | 16.7 | 0 | 0 | 33.3 | 0 | 0 | 33.3 | 56.2 | 70.3 | 0 | 0 | – | survival at 20 µM (Schistosoma japonicum [27]): 0%; survival at 15 µM (Schistosoma japonicum [28]): 0%; survival at 20 µM (Schistosoma japonicum [29]): 0%; survival at 15 µM (Schistosoma japonicum [30]): 0%; survival at 20 µM (Schistosoma japonicum [37]): 0%; survival at 15 µM (Schistosoma japonicum [38]): 0%
4 | C[C@H]1[C@@H](CC(=O)Nc2ccc3c(c2)C2CN(C(=O)C4CCCCC4)CC(=O)N2CC3)O[C@@H]2O[C@@]3(C)CC[C@H]4[C@H](C)CC[C@@H]1[C@@]24OO3 (some centres not stated) | 80 | – | – | 100 | – | – | – | – | – | – | – | – | – | – | – | – | – | 20 | – | – | –
5 | C[C@H]1[C@@H](CC(=O)Oc2ccc3c(c2)C2CN(C(=O)C4CCCCC4)CC(=O)N2CC3)O[C@@H]2O[C@@]3(C)CC[C@H]4[C@H](C)CC[C@@H]1[C@@]24OO3 (some centres not stated) | 0 | 40 | 80 | 0 | 0 | 0 | 14.3 | 28.6 | – | 0 | 28.6 | – | 0 | 28.6 | – | 49.6 | 20.5 | 0 | 0 | 100 | survival at 5 µM (Schistosoma japonicum [4]): 40%; survival at 5 µM (Schistosoma japonicum [8]): 20%; survival at 25 µM (Schistosoma japonicum [31]): 28.6%; survival at 25 µM (Schistosoma japonicum [33]): 25%; survival at 25 µM (Schistosoma japonicum [35]): 0%; survival at 5 µM (Schistosoma japonicum [26]): 0%
